{"source": "the C3SDB collision cross section collection", "key": {"[1]": {"settings": "instrument: DT, stepped-field"}, "[2]": {"settings": "instrument: DT, single field, calibrated with Agilent tune mix (Agilent)"}}, "data": [{"smiles": "O=c1[nH]cc(CO)c(=O)[nH]1", "note": "[5-Hydroxymethyluracil]", "values": [{"measurement": "collision cross section (N2)", "setting": "[1]; [M+Na]+", "result": 142.06, "unit": "Å²"}, {"measurement": "collision cross section (N2)", "setting": "[2]; [M-H]-", "result": 119.21, "unit": "Å²"}]}, {"smiles": "Cc1cn([C@@H]2O[C@H](CO)[C@@H](O)[C@H]2O)c(=O)nc1N", "note": "[5-Methylcytidine]", "values": [{"measurement": "collision cross section (N2)", "setting": "[1]; [M+H]+", "result": 157.51, "unit": "Å²"}, {"measurement": "collision cross section (N2)", "setting": "[1]; [M+Na]+", "result": 168.97, "unit": "Å²"}, {"measurement": "collision cross section (N2)", "setting": "[2]; [M+H]+", "result": 157.4, "unit": "Å²"}, {"measurement": "collision cross section (N2)", "setting": "[2]; [M-H]-", "result": 152.63, "unit": "Å²"}]}, {"smiles": "CN1c2c([nH]c(N)nc2=O)NCC1CNc1ccc(C(=O)N[C@H](CCC(=O)O)C(=O)O)cc1", "note": "(stereo partly specified) [5-Methyltetrahydrofolate]", "values": [{"measurement": "collision cross section (N2)", "setting": "[1]; [M+H]+", "result": 196.99, "unit": "Å²"}, {"measurement": "collision cross section (N2)", "setting": "[1]; [M+Na]+", "result": 200.04, "unit": "Å²"}, {"measurement": "collision cross section (N2)", "setting": "[2]; [M+H]+", "result": 196.4, "unit": "Å²"}, {"measurement": "collision cross section (N2)", "setting": "[2]; [M+Na-2H]-", "result": 201.03, "unit": "Å²"}]}, {"smiles": "NCCCCN=C(N)N", "note": "[Agmatine]", "values": [{"measurement": "collision cross section (N2)", "setting": "[1]; [M+H]+", "result": 129.96, "unit": "Å²"}, {"measurement": "collision cross section (N2)", "setting": "[2]; [M+H]+", "result": 128.2, "unit": "Å²"}]}, {"smiles": "OC[C@H]1O[C@H](O[C@H]2[C@H](O)[C@@H](O)[C@@H](O[C@H]3[C@H](O)[C@@H](O)[C@@H](O[C@H]4[C@H](O)[C@@H](O)[C@@H](O[C@H]5[C@H](O)[C@@H](O)[C@@H](O[C@H]6[C@H](O)[C@@H](O)C(O)O[C@@H]6CO)O[C@@H]5CO)O[C@@H]4CO)O[C@@H]3CO)O[C@@H]2CO)[C@H](O)[C@@H](O)[C@@H]1O", "note": "(stereo partly specified) [Maltohexaose]", "values": [{"measurement": "collision cross section (N2)", "setting": "[1]; [M+Na]+", "result": 279.7, "unit": "Å²"}]}, {"smiles": "OC[C@H]1O[C@H](O[C@H]2[C@H](O)[C@@H](O)[C@@H](O[C@H]3[C@H](O)[C@@H](O)[C@@H](O[C@H]4[C@H](O)[C@@H](O)[C@@H](O)O[C@@H]4CO)O[C@@H]3CO)O[C@@H]2CO)[C@H](O)[C@@H](O)[C@@H]1O", "note": "[Maltotetraose]", "values": [{"measurement": "collision cross section (N2)", "setting": "[1]; [M+Na]+", "result": 230.47, "unit": "Å²"}]}, {"smiles": "OC[C@H]1O[C@@H](O[C@H]2[C@H](O)[C@H](O)[C@H](O[C@H]3[C@H](O)[C@H](O)[C@H](O[C@H]4[C@H](O)[C@H](O)[C@H](O[C@H]5[C@H](O)[C@H](O)[C@H](O[C@H]6[C@H](O)[C@H](O)C(O)O[C@@H]6CO)O[C@@H]5CO)O[C@@H]4CO)O[C@@H]3CO)O[C@@H]2CO)[C@@H](O)[C@@H](O)[C@@H]1O", "note": "(stereo partly specified) [Mannohexaose]", "values": [{"measurement": "collision cross section (N2)", "setting": "[1]; [M+Na]+", "result": 281.7, "unit": "Å²"}]}, {"smiles": "CCCCC/C=C\\C/C=C\\CCCCCCCC(=O)OC", "note": "[Methyl Linoleate]", "values": [{"measurement": "collision cross section (N2)", "setting": "[1]; [M+H]+", "result": 187.2, "unit": "Å²"}]}, {"smiles": "C[C@@](O)(CCO)CC(=O)O", "note": "[Mevalonic Acid]", "values": [{"measurement": "collision cross section (N2)", "setting": "[1]; [M+Na]+", "result": 137.7, "unit": "Å²"}]}, {"smiles": "CC1(O)CCOC(=O)C1", "note": "(stereo unspecified) [Mevalonolactone]", "values": [{"measurement": "collision cross section (N2)", "setting": "[1]; [M+Na]+", "result": 143.67, "unit": "Å²"}]}, {"smiles": "C=CCc1cc(OC)c2c(c1)OCO2", "note": "[Myristicin]", "values": [{"measurement": "collision cross section (N2)", "setting": "[1]; [M+H]+", "result": 141.69, "unit": "Å²"}]}, {"smiles": "CC(=O)Nc1ccc(S(=O)(=O)Nc2cc(C)on2)cc1", "note": "[N-Acetyl Sulfamethoxazole]", "values": [{"measurement": "collision cross section (N2)", "setting": "[1]; [M+H]+", "result": 171.45, "unit": "Å²"}, {"measurement": "collision cross section (N2)", "setting": "[1]; [M+Na]+", "result": 178.52, "unit": "Å²"}]}, {"smiles": "CN[C@@H](CCC(=O)O)C(=O)O", "note": "[N-Methyl-L-glutamate]", "values": [{"measurement": "collision cross section (N2)", "setting": "[1]; [M+H]+", "result": 133.71, "unit": "Å²"}]}, {"smiles": "c1ccc2ccccc2c1", "note": "[Naphthalene]", "values": [{"measurement": "collision cross section (N2)", "setting": "[1]; [M+H]+", "result": 120.28, "unit": "Å²"}]}, {"smiles": "NC(=O)c1ccc[n+]([C@@H]2O[C@H](COP(=O)(O)OP(=O)(O)OC[C@H]3O[C@@H](n4cnc5c(N)ncnc54)[C@H](O)[C@@H]3O)[C@@H](O)[C@H]2O)c1", "note": "[Nicotinamide Adenine Dinucleotide (NAD+)]", "values": [{"measurement": "collision cross section (N2)", "setting": "[1]; [M+H]+", "result": 241.93, "unit": "Å²"}]}, {"smiles": "CCCCCCCC/C=C\\CCCCCCCC(=O)OC(CC(=O)[O-])C[N+](C)(C)C", "note": "(stereo unspecified) [Oleoylcarnitine]", "values": [{"measurement": "collision cross section (N2)", "setting": "[1]; [M+H]+", "result": 218.73, "unit": "Å²"}, {"measurement": "collision cross section (N2)", "setting": "[1]; [M+Na]+", "result": 228.6, "unit": "Å²"}]}, {"smiles": "O=C(O)CC(=O)C(=O)O", "note": "[Oxaloacetic Acid]", "values": [{"measurement": "collision cross section (N2)", "setting": "[1]; [M+H]+", "result": 139.45, "unit": "Å²"}]}, {"smiles": "CCCCCCCCCCCCCCCC(=O)O[C@H](COC(=O)CCCCCCCCCCC)COP(=O)(O)OC[C@H](N)C(=O)O", "note": "[PS(14:0/14:0)]", "values": [{"measurement": "collision cross section (N2)", "setting": "[1]; [M+Na]+", "result": 247.83, "unit": "Å²"}]}, {"smiles": "CCCCCCCCCCCCCCCC(=O)OC(CC(=O)[O-])C[N+](C)(C)C", "note": "(stereo unspecified) [Palmitoylcarnitine]", "values": [{"measurement": "collision cross section (N2)", "setting": "[1]; [M+H]+", "result": 216.1, "unit": "Å²"}, {"measurement": "collision cross section (N2)", "setting": "[1]; [M+Na]+", "result": 230.37, "unit": "Å²"}]}, {"smiles": "Cn1c(=O)[nH]c2ncn(C)c2c1=O", "note": "[Paraxanthine]", "values": [{"measurement": "collision cross section (N2)", "setting": "[1]; [M+H]+", "result": 135.63, "unit": "Å²"}]}, {"smiles": "CCC(CC)Nc1c([N+](=O)[O-])cc(C)c(C)c1[N+](=O)[O-]", "note": "[Pendimethalin]", "values": [{"measurement": "collision cross section (N2)", "setting": "[1]; [M+H]+", "result": 162.6, "unit": "Å²"}, {"measurement": "collision cross section (N2)", "setting": "[1]; [M+Na]+", "result": 187.77, "unit": "Å²"}]}, {"smiles": "Nc1c(Cl)c(Cl)nc(C(=O)O)c1Cl", "note": "[Picloram]", "values": [{"measurement": "collision cross section (N2)", "setting": "[1]; [M+H]+", "result": 142.83, "unit": "Å²"}, {"measurement": "collision cross section (N2)", "setting": "[1]; [M+Na]+", "result": 156.37, "unit": "Å²"}]}, {"smiles": "c1cn[nH]c1", "note": "[Pyrazole]", "values": [{"measurement": "collision cross section (N2)", "setting": "[1]; [M+H]+", "result": 125.47, "unit": "Å²"}]}, {"smiles": "Cc1ncc(COP(=O)(O)O)c(C=O)c1O", "note": "[Pyridoxal 5'-Phosphate]", "values": [{"measurement": "collision cross section (N2)", "setting": "[1]; [M+H]+", "result": 154.76, "unit": "Å²"}, {"measurement": "collision cross section (N2)", "setting": "[1]; [M+Na]+", "result": 165.05, "unit": "Å²"}]}, {"smiles": "O=P(O)(O)OP(=O)(O)O", "note": "[Pyrophosphoric Acid]", "values": [{"measurement": "collision cross section (N2)", "setting": "[1]; [M+Na]+", "result": 145.58, "unit": "Å²"}]}, {"smiles": "O=C(O)C1(O)C[C@@H](O)C(O)[C@H](O)C1", "note": "(stereo partly specified) [Quinic Acid]", "values": [{"measurement": "collision cross section (N2)", "setting": "[1]; [M+H]+", "result": 146.35, "unit": "Å²"}, {"measurement": "collision cross section (N2)", "setting": "[1]; [M+Na]+", "result": 153.72, "unit": "Å²"}]}, {"smiles": "CC/C=C\\C[C@H](O)[C@H](O)/C=C/C=C/C=C\\C=C\\[C@@H](O)C/C=C\\CCC(=O)O", "note": "[Resolvin D2]", "values": [{"measurement": "collision cross section (N2)", "setting": "[1]; [M+Na]+", "result": 200.6, "unit": "Å²"}]}, {"smiles": "CCCCCCCCCCCCC=CC[C@@H](O)[C@H](COP(=O)([O-])OCC[N+](C)(C)C)NC(=O)CCCCCCCCCCCCCCCC", "note": "[SM(d18:1/17:0)]", "values": [{"measurement": "collision cross section (N2)", "setting": "[1]; [M+H]+", "result": 290.12, "unit": "Å²"}, {"measurement": "collision cross section (N2)", "setting": "[1]; [M+Na]+", "result": 291.89, "unit": "Å²"}]}, {"smiles": "O=C[C@H](O[C@@H]1O[C@H](CO)[C@@H](O)[C@H](O)[C@H]1O)[C@@H](O)[C@H](O)[C@H](O)CO", "note": "[Sophorose]", "values": [{"measurement": "collision cross section (N2)", "setting": "[1]; [M+Na]+", "result": 183.57, "unit": "Å²"}]}, {"smiles": "CCNc1nc(NC(C)(C)C)nc(SC)n1", "note": "[Terbutryn]", "values": [{"measurement": "collision cross section (N2)", "setting": "[1]; [M+H]+", "result": 161.23, "unit": "Å²"}]}, {"smiles": "CC/C=C\\C[C@H](O)/C=C/[C@H]1OC(O)C[C@H](O)[C@@H]1C/C=C\\CCCC(=O)O", "note": "(stereo partly specified) [Thromboxane B3]", "values": [{"measurement": "collision cross section (N2)", "setting": "[1]; [M+Na]+", "result": 197.33, "unit": "Å²"}]}, {"smiles": "C/C=C(\\C)C(=O)NCC(=O)O", "note": "[Tiglyl Glycine]", "values": [{"measurement": "collision cross section (N2)", "setting": "[1]; [M+Na]+", "result": 146.68, "unit": "Å²"}]}, {"smiles": "O=C(O)[C@@H]1C[C@@H](O)CN1", "note": "[Trans-4-Hydroxy-L-proline]", "values": [{"measurement": "collision cross section (N2)", "setting": "[1]; [M+H]+", "result": 130.23, "unit": "Å²"}]}, {"smiles": "O=C(O)/C=C(\\CC(=O)O)C(=O)O", "note": "[Trans-Aconitic Acid]", "values": [{"measurement": "collision cross section (N2)", "setting": "[1]; [M+H]+", "result": 153.02, "unit": "Å²"}, {"measurement": "collision cross section (N2)", "setting": "[1]; [M+Na]+", "result": 149.13, "unit": "Å²"}]}, {"smiles": "O=c1[nH]c(=O)c2[nH]c(=O)[nH]c2[nH]1", "note": "[Uric Acid]", "values": [{"measurement": "collision cross section (N2)", "setting": "[1]; [M+H]+", "result": 131, "unit": "Å²"}, {"measurement": "collision cross section (N2)", "setting": "[1]; [M+Na]+", "result": 143.5, "unit": "Å²"}]}, {"smiles": "OC1OC[C@@H](O[C@@H]2OC[C@@H](O)[C@H](O)[C@H]2O)[C@H](O)[C@H]1O", "note": "(stereo partly specified) [Xylobiose]", "values": [{"measurement": "collision cross section (N2)", "setting": "[1]; [M+Na]+", "result": 167.4, "unit": "Å²"}]}, {"smiles": "C[N+](C)(C)CCOP(=O)([O-])OC[C@H](O)CO", "note": "[sn-Glycero-3-phosphocholine]", "values": [{"measurement": "collision cross section (N2)", "setting": "[1]; [M+H]+", "result": 157.17, "unit": "Å²"}, {"measurement": "collision cross section (N2)", "setting": "[1]; [M+Na]+", "result": 161.8, "unit": "Å²"}]}]}
